Reference: paper PMC11189555, “Aryl amino acetamides prevent Plasmodium falciparum ring development via targeting the lipid-transfer protein PfSTART1” (Nature Communications, 2024)
Where two headings read alike, the source gives them in different places.

System: 3D7 P. falciparum parasites
Test: Growth inhibition assay (72 h, LDH activity)
Type: cell-based, Plasmodium falciparum
Conditions: for EC50: Plasmodium falciparum
Experimental: Parasite growth assays with inhibitory compounds were performed as per[11] and are fully described in the Supplementary Information. […]
Growth inhibition assays. Synchronised ring-stage parasites (0.3-0.6% parasitemia, 2% haematocrit) were grown for 72 h in a serial-dilution of the compound under […]
and compound 4. Note that M-833 was first purchased from MolPort (MolPort -002-267-916) then made in-house at WEHI: the differences observed in EC50s across experiments are attributed to the different batches of M -833. For some experiments, 0, 0.25 or 2.5 mM of glucosamine (GlcN) was also added. Experiments were set up in technical duplicates or triplicates. Following a freeze -thaw cycle, lactate dehydrogenase (LDH) activity was assessed as an indicator of parasite growt h 5. 30 μL of parasite culture was incubated for 30 min in the dark with 75 μL Malstat mixture (0.1 M Tris pH 9.0, 20 g/L lactic acid, pH 7.5, 0.2% Triton-X100, 0.5 g/L acetylpyridine adenine dinucleotide (APAD, Sigma), 200 μg/mL nitroblue tetrazolium (NBT; Sigma), 1 μg/mL phenozine ethosulfate (PES; Sigma)). Absorbance was then measured at 650 nm, transformed using the formula below, plotted against the logarithm of the concentrations, and a non-linear regression (log(inhibitor) vs. response, variable slope) was calculated using GraphPad Prism to assess the half-inhibitory […]
Growth inhibition % = (1 − average(sample)− average(uRBC)) ∗ 100 […]
The DMSO samples were also used to assess growth of parasite in the presence of 0.25 and 2.5 mM GlcN (normalised by DMSO in 0 mM GlcN). […]

[1] = 3D7, conc. 3.04832 nM, Biological replicate 1 (2021-10-25)
[2] = 3D7, conc. 3.04832 nM, Biological replicate 2 (2021-11-03)
[3] = 3D7, conc. 3.04832 nM, Biological replicate 3 (2021-11-11)
[4] = 3D7, conc. 9.14495 nM, Biological replicate 1 (2021-10-25)
[5] = 3D7, conc. 9.14495 nM, Biological replicate 2 (2021-11-03)
[6] = 3D7, conc. 9.14495 nM, Biological replicate 3 (2021-11-11)
[7] = 3D7, conc. 27.4348 nM, Biological replicate 1 (2021-10-25)
[8] = 3D7, conc. 27.4348 nM, Biological replicate 2 (2021-11-03)
[9] = 3D7, conc. 27.4348 nM, Biological replicate 3 (2021-11-11)
[10] = 3D7, conc. 82.3045 nM, Biological replicate 1 (2021-10-25)
[11] = 3D7, conc. 82.3045 nM, Biological replicate 2 (2021-11-03)
[12] = 3D7, conc. 82.3045 nM, Biological replicate 3 (2021-11-11)
[13] = 3D7, conc. 246.914 nM, Biological replicate 1 (2021-10-25)
[14] = 3D7, conc. 246.914 nM, Biological replicate 2 (2021-11-03)
[15] = 3D7, conc. 246.914 nM, Biological replicate 3 (2021-11-11)
[16] = 3D7, conc. 740.741 nM, Biological replicate 1 (2021-10-25)
[17] = 3D7, conc. 740.741 nM, Biological replicate 2 (2021-11-03)
[18] = 3D7, conc. 740.741 nM, Biological replicate 3 (2021-11-11)
[19] = 3D7, conc. 2222.22 nM, Biological replicate 1 (2021-10-25)
[20] = 3D7, conc. 2222.22 nM, Biological replicate 2 (2021-11-03)
[21] = 3D7, conc. 2222.22 nM, Biological replicate 3 (2021-11-11)
[22] = 3D7, conc. 6666.67 nM, Biological replicate 1 (2021-10-25)
[23] = 3D7, conc. 6666.67 nM, Biological replicate 2 (2021-11-03)
[24] = 3D7, conc. 6666.67 nM, Biological replicate 3 (2021-11-11)
[25] = 3D7, conc. 20000 nM, Biological replicate 1 (2021-10-25)
[26] = 3D7, conc. 20000 nM, Biological replicate 2 (2021-11-03)
[27] = 3D7, conc. 20000 nM, Biological replicate 3 (2021-11-11)
[28] = 3D7, 72 h, Supplementary Table 1, 3D7, 72 h, read-out: EC50
[29] = 3D7, Fig 4A, 3D7 parasites, read-out: Pf 3D7 EC50 (SD)

## O=C(CNc1ccc(Cl)c(S(=O)(=O)N2CCOCC2)c1)Nc1ccc(F)c(Cl)c1 [compound 2, reference compound]
[1]
  (av-uRBC) / (DMSO-uRBC) x100: 101.583
[2]
  (av-uRBC) / (DMSO-uRBC) x100: 104.234
[3]
  (av-uRBC) / (DMSO-uRBC) x100: 118.798
[4]
  (av-uRBC) / (DMSO-uRBC) x100: 98.3522
[5]
  (av-uRBC) / (DMSO-uRBC) x100: 106.026
[6]
  (av-uRBC) / (DMSO-uRBC) x100: 112.58
[7]
  (av-uRBC) / (DMSO-uRBC) x100: 92.7855
[8]
  (av-uRBC) / (DMSO-uRBC) x100: 105.906
[9]
  (av-uRBC) / (DMSO-uRBC) x100: 106.329
[10]
  (av-uRBC) / (DMSO-uRBC) x100: 76.9881
[11]
  (av-uRBC) / (DMSO-uRBC) x100: 101.625
[12]
  (av-uRBC) / (DMSO-uRBC) x100: 81.2348
[13]
  (av-uRBC) / (DMSO-uRBC) x100: 38.3866
[14]
  (av-uRBC) / (DMSO-uRBC) x100: 48.8275
[15]
  (av-uRBC) / (DMSO-uRBC) x100: 35.6638
[16]
  (av-uRBC) / (DMSO-uRBC) x100: 12.6522
[17]
  (av-uRBC) / (DMSO-uRBC) x100: 13.3573
[18]
  (av-uRBC) / (DMSO-uRBC) x100: 9.565
[19]
  (av-uRBC) / (DMSO-uRBC) x100: 9.471
[20]
  (av-uRBC) / (DMSO-uRBC) x100: 10.1641
[21]
  (av-uRBC) / (DMSO-uRBC) x100: 7.82
[22]
  (av-uRBC) / (DMSO-uRBC) x100: 8.762
[23]
  (av-uRBC) / (DMSO-uRBC) x100: 10.3401
[24]
  (av-uRBC) / (DMSO-uRBC) x100: 6.881
[25]
  (av-uRBC) / (DMSO-uRBC) x100: 8.397
[26]
  (av-uRBC) / (DMSO-uRBC) x100: 8.683
[27]
  (av-uRBC) / (DMSO-uRBC) x100: 3.998
[28]
  EC50: 171 nM
[29]
  EC50: 140 nM

## CC(C)(Oc1ccc(Cl)c(S(=O)(=O)N2CCOCC2)c1)C(=O)Nc1ccc(F)c(Cl)c1 [compound 3]
[1]
  (av-uRBC) / (DMSO-uRBC) x100: 98.9546
[2]
  (av-uRBC) / (DMSO-uRBC) x100: 99.5733
[3]
  (av-uRBC) / (DMSO-uRBC) x100: 55.9066
[4]
  (av-uRBC) / (DMSO-uRBC) x100: 81.8447
[5]
  (av-uRBC) / (DMSO-uRBC) x100: 87.421
[6]
  (av-uRBC) / (DMSO-uRBC) x100: 38.3092
[7]
  (av-uRBC) / (DMSO-uRBC) x100: 30.9131
[8]
  (av-uRBC) / (DMSO-uRBC) x100: 28.899
[9]
  (av-uRBC) / (DMSO-uRBC) x100: 16.2848
[10]
  (av-uRBC) / (DMSO-uRBC) x100: 11.7409
[11]
  (av-uRBC) / (DMSO-uRBC) x100: 11.9543
[12]
  (av-uRBC) / (DMSO-uRBC) x100: 7.809
[13]
  (av-uRBC) / (DMSO-uRBC) x100: 8.8892
[14]
  (av-uRBC) / (DMSO-uRBC) x100: 10.72
[15]
  (av-uRBC) / (DMSO-uRBC) x100: 6.2069
[16]
  (av-uRBC) / (DMSO-uRBC) x100: 8.477
[17]
  (av-uRBC) / (DMSO-uRBC) x100: 10.3467
[18]
  (av-uRBC) / (DMSO-uRBC) x100: 4.271
[19]
  (av-uRBC) / (DMSO-uRBC) x100: 8.256
[20]
  (av-uRBC) / (DMSO-uRBC) x100: 10.0343
[21]
  (av-uRBC) / (DMSO-uRBC) x100: 3.637
[22]
  (av-uRBC) / (DMSO-uRBC) x100: 8.6332
[23]
  (av-uRBC) / (DMSO-uRBC) x100: 8.244
[24]
  (av-uRBC) / (DMSO-uRBC) x100: 2.725
[25]
  (av-uRBC) / (DMSO-uRBC) x100: 7.467
[26]
  (av-uRBC) / (DMSO-uRBC) x100: 5.95
[27]
  (av-uRBC) / (DMSO-uRBC) x100: -1.791
EC50 based
  improvement in antiparasitic activity relative to the activity of M-833: 10 fold
[28]
  EC50: 16 nM
[29]
  EC50: 150 nM
3D7, text on structure activity relationship (Fig 4A), read-out: EC50, antiparasitic activity
  EC50: 120 nM
